The values that follow are results of earlier work, collected in patent US11246836B2, “Intramuscular depot of decoquinate compositions and method of prophylaxis and treatment thereof” (BLUELIGHT PHARMATECH CO., LTD., priority 2018, dated 2022).

In brackets after ≈: the same amount, converted by molar mass.

For one data set, the system named is Plasmodium berghei ANKA. As to conditions: single dose of 5 mg/kg suspended in soybean oil.
The next data set relates to P. yoelii. As to conditions: 50 mg/kg in a corn oil emulsion.

Turning to `CCCCCCCCCCOc1cc2c(=O)c(C(=O)OCC)c[nH]c2cc1OCC` [decoquinate, ethyl-6-decyloxy-7-ethoxy-4-hydroxyquinoline-3-carboxylate], the “appearance of blood stage parasites” value in the data set on Plasmodium berghei ANKA is “prevent the appearance of blood stage Plasmodium berghei ANKA parasites”. In addition, the “causal prophylaxis of parasitemia” value in the data set with P. yoelii was “efficacious”. Besides, the “minimum inhibitory concentration (MIC)” value with Plasmodium is 5.12 ng/mL (≈ 0.0123 µM).
